Laboratory results as given in patent publication US20120295907A1, “INSECTICIDAL COMPOUNDS” (SYNGENTA CROP PROTECTION, LLC, priority 2009, published 2012).

Key:
Type in all cases: in vivo
Myzus persicae = Myzus persicae (Green Peach Aphid) sunflower leaf disc spray test; conditions: foliar, 144 h, 200 ppm spray on sunflower leaf discs, aphid population of mixed ages, 6 DAT, mortality
Heliothis virescens = Heliothis virescens (Tobacco Budworm) egg test on artificial diet; conditions: 96 h, 200 ppm (concentration in well 18 ppm), eggs 0-24 h old on artificial diet, 4 days, egg mortality, larval mortality, growth regulation
Tetranychus urticae = Tetranychus urticae (Two-Spotted Spider Mite) bean leaf disc spray test; conditions: foliar, 192 h, 200 ppm spray on bean leaf discs, mite populations of mixed ages, 8 days, egg, larval and adult mortality, read-out: control of Tetranychus urticae
Plutella xylostella = Plutella xylostella (Diamond Back Moth) artificial diet MTP test; conditions: 144 h, 200 ppm (concentration in well 18 ppm), L2 larvae, 6 days, larval mortality, growth regulation
Spodoptera littoralis = Spodoptera littoralis (Egyptian Cotton Leafworm) cotton leaf disc spray test; conditions: foliar, 72 h, 200 ppm spray on cotton leaf discs, L1 larvae, mortality, feeding behavior, growth regulation 3 DAT
Diabrotica balteata = Diabrotica balteata (Corn Root Worm) artificial diet MTP test; conditions: 120 h, 200 ppm (concentration in well 18 ppm), L2 larvae, 5 days, larval mortality, growth regulation
Thrips tabaci = Thrips tabaci (Onion Thrips) sunflower leaf disc spray test; conditions: foliar, 168 h, 200 ppm spray on sunflower leaf discs, population of mixed ages, 7 days, mortality

Measured: pest or weed control at 200 ppm

COc1c(NC(=O)c2ccc(F)cc2Cl)cccc1C(=O)Nc1c(Cl)cc(C(F)(C(F)(F)F)C(F)(F)C(F)(F)F)cc1Br (stereo not drawn) [B2, N-[2-bromo-6-chloro-4-(1,2,2,3,3,3-hexafluoro-1-trifluoromethylpropyl)phenyl]-3-(4-fluoro-2-chlorobenzoylamino)-2-methoxybenzamide]
not listed: Diabrotica balteata | Thrips tabaci
≥ 80%: all other assays above

COc1c(NC(=O)c2ccccc2Cl)cccc1C(=O)Nc1c(Cl)cc(C(F)(C(F)(F)F)C(F)(F)C(F)(F)F)cc1Br (stereo not drawn) [B5]
not listed: Thrips tabaci
≥ 80%: all other assays above

COc1c(NC(=O)c2ccc(C#N)cc2)cccc1C(=O)Nc1c(Cl)cc(C(F)(C(F)(F)F)C(F)(F)C(F)(F)F)cc1Br (stereo not drawn) [B6]
not listed: Diabrotica balteata | Thrips tabaci
≥ 80%: all other assays above

COc1c(NC(=O)c2ccc([N+](=O)[O-])cc2)cccc1C(=O)Nc1c(Cl)cc(C(F)(C(F)(F)F)C(F)(F)C(F)(F)F)cc1Br (stereo not drawn) [B7]
not listed: Diabrotica balteata | Thrips tabaci
≥ 80%: all other assays above

COc1c(NC(=O)c2ccc(C)cc2)cccc1C(=O)Nc1c(Cl)cc(C(F)(C(F)(F)F)C(F)(F)C(F)(F)F)cc1Br (stereo not drawn) [B8]
not listed: Diabrotica balteata | Thrips tabaci
≥ 80%: all other assays above

COc1c(NC(=O)c2ccc(C(F)(F)F)cc2)cccc1C(=O)Nc1c(Cl)cc(C(F)(C(F)(F)F)C(F)(F)C(F)(F)F)cc1Br (stereo not drawn) [B15]
not listed: Diabrotica balteata | Thrips tabaci
≥ 80%: all other assays above

COc1c(NC(=O)c2ccc(F)cc2)cccc1C(=O)Nc1c(Cl)cc(C(F)(C(F)(F)F)C(F)(F)C(F)(F)F)cc1Br (stereo not drawn) [B19]
not listed: Diabrotica balteata | Thrips tabaci
≥ 80%: all other assays above

COc1c(NC(=O)c2cccs2)cccc1C(=O)Nc1c(Cl)cc(C(F)(C(F)(F)F)C(F)(F)C(F)(F)F)cc1Br (stereo not drawn) [B44]
not listed: Tetranychus urticae
≥ 80%: all other assays above

COc1c(NC(=O)c2cccnc2SC)cccc1C(=O)Nc1c(Cl)cc(C(F)(C(F)(F)F)C(F)(F)C(F)(F)F)cc1Br (stereo not drawn) [B45]
not listed: Tetranychus urticae
≥ 80%: all other assays above

COc1cc(C(=O)Nc2cccc(C(=O)Nc3c(Cl)cc(C(F)(C(F)(F)F)C(F)(F)C(F)(F)F)cc3Br)c2OC)on1 (stereo not drawn) [B89]
not listed: Tetranychus urticae
≥ 80%: all other assays above

COc1c(NC(=O)c2ccc(C)s2)cccc1C(=O)Nc1c(Cl)cc(C(F)(C(F)(F)F)C(F)(F)C(F)(F)F)cc1Br (stereo not drawn) [B137]
not listed: Tetranychus urticae
≥ 80%: all other assays above

COc1c(NC(=O)c2c(F)cc(F)cc2F)cccc1C(=O)Nc1c(Cl)cc(C(F)(C(F)(F)F)C(F)(F)C(F)(F)F)cc1Br (stereo not drawn) [B189, N-{3-[2-Bromo-6-chloro-4-(1,2,2,3,3,3-hexafluoro-1-trifluoromethylpropyl)-phenylcarbamoyl]-2-methoxyphenyl}-2,4,6-trifluorobenzamide]
not listed: Diabrotica balteata | Thrips tabaci
≥ 80%: all other assays above

COc1c(NC(=O)c2ccc(F)cc2Cl)cccc1C(=O)Nc1c(Cl)cc(C(F)(C(F)(F)F)C(F)(F)C(F)(F)F)cc1Cl (stereo not drawn) [C1, N-[2,6-dichloro-4-(1,2,2,3,3,3-hexafluoro-1-trifluoromethylpropyl)phenyl]-3-(4-fluoro-2-chlorobenzoylamino)-2-methoxybenzamide]
not listed: Tetranychus urticae
≥ 80%: all other assays above

COc1c(NC(=O)c2ccccc2F)cccc1C(=O)Nc1c(Cl)cc(C(F)(C(F)(F)F)C(F)(F)F)cc1Cl [E1]
not listed: Tetranychus urticae | Plutella xylostella
≥ 80%: all other assays above

COc1c(NC(=O)c2ccccc2C)cccc1C(=O)Nc1c(Cl)cc(C(F)(C(F)(F)F)C(F)(F)F)cc1Cl [E2]
not listed: Tetranychus urticae | Plutella xylostella
≥ 80%: all other assays above

COc1c(NC(=O)c2ccc(C)cc2)cccc1C(=O)Nc1c(Cl)cc(C(F)(C(F)(F)F)C(F)(F)F)cc1Cl [E6]
not listed: Tetranychus urticae
≥ 80%: all other assays above

COc1c(NC(=O)c2ccc(OC(F)(F)F)cc2)cccc1C(=O)Nc1c(Cl)cc(C(F)(C(F)(F)F)C(F)(F)F)cc1Cl [E11]
not listed: Tetranychus urticae
≥ 80%: all other assays above

COc1c(NC(=O)c2ccccc2)cccc1C(=O)Nc1c(Cl)cc(C(F)(C(F)(F)F)C(F)(F)F)cc1Cl [E16]
not listed: Tetranychus urticae
≥ 80%: all other assays above

COc1c(NC(=O)c2cccc(F)c2F)cccc1C(=O)Nc1c(Cl)cc(C(F)(C(F)(F)F)C(F)(F)F)cc1Cl [E21]
not listed: Tetranychus urticae
≥ 80%: all other assays above

COCc1cc(C(F)(C(F)(F)F)C(F)(F)C(F)(F)F)cc(Cl)c1NC(=O)c1cccc(NC(=O)c2ccc(F)cc2Cl)c1OC (stereo not drawn) [H25]
not listed: Tetranychus urticae | Spodoptera littoralis
≥ 80%: all other assays above

COCc1cc(C(F)(C(F)(F)F)C(F)(F)C(F)(F)F)cc(Br)c1NC(=O)c1cccc(NC(=O)c2c(F)cc(F)cc2F)c1OC (stereo not drawn) [I2]
not listed: Tetranychus urticae | Spodoptera littoralis
≥ 80%: all other assays above

COCc1cc(C(F)(C(F)(F)F)C(F)(F)C(F)(F)F)cc(Br)c1NC(=O)c1cccc(NC(=O)c2ccc(F)cc2Cl)c1OC (stereo not drawn) [I25]
not listed: Tetranychus urticae | Spodoptera littoralis
≥ 80%: all other assays above
